{"source": "patent US20230049952A1", "about": "“METHODS AND COMPOUNDS FOR RESTORING MUTANT P53 FUNCTION” (PMV Pharmaceuticals, Inc., priority 2020, published 2023)", "test_system": "p53 signaling pathway in MT373 tumors", "test": "MT373 syngeneic sarcoma model: mouse p53 signaling pathway profiling panel", "type": "in vivo", "data": [{"smiles": "CCn1c(C#CCNc2ccccc2)cc2cc(CNC3CCN(C)CC3)ccc21", "note": "[Compound 1, 1-Anilino-3-{1-ethyl-5-[(1-methyl-4-piperidylamino)methyl]-1H-indol-2-yl}-2-propyne]", "values": [{"measurement": "Pcna fold increase or percent reduction vs vehicle control", "setting": "150 mg/kg BIDx1, 24 h", "value": "42.63 fold or %"}, {"measurement": "Pmaip1 fold increase or percent reduction vs vehicle control", "setting": "150 mg/kg BIDx1, 24 h", "value": "1.45 fold or %"}, {"measurement": "Ppm1d fold increase or percent reduction vs vehicle control", "setting": "150 mg/kg BIDx1, 24 h", "value": "1.49 fold or %"}, {"measurement": "Prc1 fold increase or percent reduction vs vehicle control", "setting": "150 mg/kg BIDx1, 24 h", "value": "54.87 fold or %"}, {"measurement": "Prkca fold increase or percent reduction vs vehicle control", "setting": "150 mg/kg BIDx1, 24 h", "value": "28.12 fold or %"}, {"measurement": "Pten fold increase or percent reduction vs vehicle control", "setting": "150 mg/kg BIDx1, 24 h", "value": "1.08 fold or %"}, {"measurement": "Pttg1 fold increase or percent reduction vs vehicle control", "setting": "150 mg/kg BIDx1, 24 h", "value": "1.11 fold or %"}, {"measurement": "Rb1 fold increase or percent reduction vs vehicle control", "setting": "150 mg/kg BIDx1, 24 h", "value": "1.48 fold or %"}, {"measurement": "Rela fold increase or percent reduction vs vehicle control", "setting": "150 mg/kg BIDx1, 24 h", "value": "14.73 fold or %"}, {"measurement": "Rprm fold increase or percent reduction vs vehicle control", "setting": "150 mg/kg BIDx1, 24 h", "value": "2.12 fold or %"}, {"measurement": "Serpinb5 fold increase or percent reduction vs vehicle control", "setting": "150 mg/kg BIDx1, 24 h", "value": "2.23 fold or %"}, {"measurement": "Sesn2 fold increase or percent reduction vs vehicle control", "setting": "150 mg/kg BIDx1, 24 h", "value": "2.45 fold or %"}, {"measurement": "Sfn fold increase or percent reduction vs vehicle control", "setting": "150 mg/kg BIDx1, 24 h", "value": "31.21 fold or %"}, {"measurement": "Sirt1 fold increase or percent reduction vs vehicle control", "setting": "150 mg/kg BIDx1, 24 h", "value": "15.06 fold or %"}, {"measurement": "Stat1 fold increase or percent reduction vs vehicle control", "setting": "150 mg/kg BIDx1, 24 h", "value": "1.51 fold or %"}, {"measurement": "Tnf fold increase or percent reduction vs vehicle control", "setting": "150 mg/kg BIDx1, 24 h", "value": "1.23 fold or %"}, {"measurement": "Traf1 fold increase or percent reduction vs vehicle control", "setting": "150 mg/kg BIDx1, 24 h", "value": "1.20 fold or %"}, {"measurement": "Trp53bp2 fold increase or percent reduction vs vehicle control", "setting": "150 mg/kg BIDx1, 24 h", "value": "12.94 fold or %"}, {"measurement": "Trp53 fold increase or percent reduction vs vehicle control", "setting": "150 mg/kg BIDx1, 24 h", "value": "27.25 fold or %"}, {"measurement": "Apex1 fold increase or percent reduction vs vehicle control", "setting": "150 mg/kg BIDx1, 48 h", "value": "31.42 fold or %"}, {"measurement": "Atm fold increase or percent reduction vs vehicle control", "setting": "150 mg/kg BIDx1, 48 h", "value": "26.33 fold or %"}, {"measurement": "Atr fold increase or percent reduction vs vehicle control", "setting": "150 mg/kg BIDx1, 48 h", "value": "16.47 fold or %"}, {"measurement": "Bag1 fold increase or percent reduction vs vehicle control", "setting": "150 mg/kg BIDx1, 48 h", "value": "42.01 fold or %"}, {"measurement": "Bax fold increase or percent reduction vs vehicle control", "setting": "150 mg/kg BIDx1, 48 h", "value": "30.76 fold or %"}, {"measurement": "Bbc3 fold increase or percent reduction vs vehicle control", "setting": "150 mg/kg BIDx1, 48 h", "value": "1.04 fold or %"}, {"measurement": "Bcl2 fold increase or percent reduction vs vehicle control", "setting": "150 mg/kg BIDx1, 48 h", "value": "23.30 fold or %"}, {"measurement": "Bid fold increase or percent reduction vs vehicle control", "setting": "150 mg/kg BIDx1, 48 h", "value": "1.01 fold or %"}, {"measurement": "Birc5 fold increase or percent reduction vs vehicle control", "setting": "150 mg/kg BIDx1, 48 h", "value": "66.42 fold or %"}, {"measurement": "Brca1 fold increase or percent reduction vs vehicle control", "setting": "150 mg/kg BIDx1, 48 h", "value": "60.55 fold or %"}, {"measurement": "Brca2 fold increase or percent reduction vs vehicle control", "setting": "150 mg/kg BIDx1, 48 h", "value": "41.49 fold or %"}, {"measurement": "Btg2 fold increase or percent reduction vs vehicle control", "setting": "150 mg/kg BIDx1, 48 h", "value": "1.05 fold or %"}, {"measurement": "Casp2 fold increase or percent reduction vs vehicle control", "setting": "150 mg/kg BIDx1, 48 h", "value": "15.74 fold or %"}, {"measurement": "Ccnb1 fold increase or percent reduction vs vehicle control", "setting": "150 mg/kg BIDx1, 48 h", "value": "73.80 fold or %"}, {"measurement": "Ccne1 fold increase or percent reduction vs vehicle control", "setting": "150 mg/kg BIDx1, 48 h", "value": "38.25 fold or %"}, {"measurement": "Ccng1 fold increase or percent reduction vs vehicle control", "setting": "150 mg/kg BIDx1, 48 h", "value": "1.45 fold or %"}, {"measurement": "Ccnh fold increase or percent reduction vs vehicle control", "setting": "150 mg/kg BIDx1, 48 h", "value": "16.38 fold or %"}, {"measurement": "Cdc25a fold increase or percent reduction vs vehicle control", "setting": "150 mg/kg BIDx1, 48 h", "value": "42.22 fold or %"}, {"measurement": "Cdk1 fold increase or percent reduction vs vehicle control", "setting": "150 mg/kg BIDx1, 48 h", "value": "69.40 fold or %"}, {"measurement": "Cdk4 fold increase or percent reduction vs vehicle control", "setting": "150 mg/kg BIDx1, 48 h", "value": "54.23 fold or %"}, {"measurement": "Cdkn1a fold increase or percent reduction vs vehicle control", "setting": "150 mg/kg BIDx1, 48 h", "value": "1.38 fold or %"}, {"measurement": "Cdkn2a fold increase or percent reduction vs vehicle control", "setting": "150 mg/kg BIDx1, 48 h", "value": "38.18 fold or %"}, {"measurement": "Chek1 fold increase or percent reduction vs vehicle control", "setting": "150 mg/kg BIDx1, 48 h", "value": "63.16 fold or %"}, {"measurement": "Cradd fold increase or percent reduction vs vehicle control", "setting": "150 mg/kg BIDx1, 48 h", "value": "24.24 fold or %"}, {"measurement": "Cul9 fold increase or percent reduction vs vehicle control", "setting": "150 mg/kg BIDx1, 48 h", "value": "1.03 fold or %"}, {"measurement": "Dapk1 fold increase or percent reduction vs vehicle control", "setting": "150 mg/kg BIDx1, 48 h", "value": "1.17 fold or %"}, {"measurement": "Dnmt1 fold increase or percent reduction vs vehicle control", "setting": "150 mg/kg BIDx1, 48 h", "value": "34.04 fold or %"}, {"measurement": "E2f1 fold increase or percent reduction vs vehicle control", "setting": "150 mg/kg BIDx1, 48 h", "value": "30.48 fold or %"}, {"measurement": "E2f3 fold increase or percent reduction vs vehicle control", "setting": "150 mg/kg BIDx1, 48 h", "value": "33.97 fold or %"}, {"measurement": "Egfr fold increase or percent reduction vs vehicle control", "setting": "150 mg/kg BIDx1, 48 h", "value": "41.85 fold or %"}, {"measurement": "Egr1 fold increase or percent reduction vs vehicle control", "setting": "150 mg/kg BIDx1, 48 h", "value": "46.38 fold or %"}, {"measurement": "Ep300 fold increase or percent reduction vs vehicle control", "setting": "150 mg/kg BIDx1, 48 h", "value": "1.10 fold or %"}, {"measurement": "Ercc1 fold increase or percent reduction vs vehicle control", "setting": "150 mg/kg BIDx1, 48 h", "value": "44.10 fold or %"}, {"measurement": "Esr1 fold increase or percent reduction vs vehicle control", "setting": "150 mg/kg BIDx1, 48 h", "value": "1.67 fold or %"}, {"measurement": "Fadd fold increase or percent reduction vs vehicle control", "setting": "150 mg/kg BIDx1, 48 h", "value": "9.11 fold or %"}, {"measurement": "Fas fold increase or percent reduction vs vehicle control", "setting": "150 mg/kg BIDx1, 48 h", "value": "10.02 fold or %"}, {"measurement": "Fasl fold increase or percent reduction vs vehicle control", "setting": "150 mg/kg BIDx1, 48 h", "value": "1.18 fold or %"}, {"measurement": "Foxo3 fold increase or percent reduction vs vehicle control", "setting": "150 mg/kg BIDx1, 48 h", "value": "7.35 fold or %"}, {"measurement": "Gadd45a fold increase or percent reduction vs vehicle control", "setting": "150 mg/kg BIDx1, 48 h", "value": "42.12 fold or %"}, {"measurement": "Hif1a fold increase or percent reduction vs vehicle control", "setting": "150 mg/kg BIDx1, 48 h", "value": "2.87 fold or %"}, {"measurement": "Il6 fold increase or percent reduction vs vehicle control", "setting": "150 mg/kg BIDx1, 48 h", "value": "79.27 fold or %"}, {"measurement": "Jun fold increase or percent reduction vs vehicle control", "setting": "150 mg/kg BIDx1, 48 h", "value": "47.43 fold or %"}, {"measurement": "Kras fold increase or percent reduction vs vehicle control", "setting": "150 mg/kg BIDx1, 48 h", "value": "1.18 fold or %"}, {"measurement": "Lig4 fold increase or percent reduction vs vehicle control", "setting": "150 mg/kg BIDx1, 48 h", "value": "1.12 fold or %"}, {"measurement": "Mdm2 fold increase or percent reduction vs vehicle control", "setting": "150 mg/kg BIDx1, 48 h", "value": "1.03 fold or %"}, {"measurement": "Mdm4 fold increase or percent reduction vs vehicle control", "setting": "150 mg/kg BIDx1, 48 h", "value": "1.28 fold or %"}, {"measurement": "Mel1 fold increase or percent reduction vs vehicle control", "setting": "150 mg/kg BIDx1, 48 h", "value": "6.76 fold or %"}, {"measurement": "Mlh1 fold increase or percent reduction vs vehicle control", "setting": "150 mg/kg BIDx1, 48 h", "value": "19.02 fold or %"}, {"measurement": "Msh2 fold increase or percent reduction vs vehicle control", "setting": "150 mg/kg BIDx1, 48 h", "value": "29.32 fold or %"}, {"measurement": "Myod1 fold increase or percent reduction vs vehicle control", "setting": "150 mg/kg BIDx1, 48 h", "value": "1.51 fold or %"}, {"measurement": "Nf1 fold increase or percent reduction vs vehicle control", "setting": "150 mg/kg BIDx1, 48 h", "value": "9.92 fold or %"}, {"measurement": "Nfkb1 fold increase or percent reduction vs vehicle control", "setting": "150 mg/kg BIDx1, 48 h", "value": "4.37 fold or %"}, {"measurement": "Pcna fold increase or percent reduction vs vehicle control", "setting": "150 mg/kg BIDx1, 48 h", "value": "58.04 fold or %"}, {"measurement": "Pmaip1 fold increase or percent reduction vs vehicle control", "setting": "150 mg/kg BIDx1, 48 h", "value": "1.17 fold or %"}, {"measurement": "Ppm1d fold increase or percent reduction vs vehicle control", "setting": "150 mg/kg BIDx1, 48 h", "value": "2.87 fold or %"}, {"measurement": "Prc1 fold increase or percent reduction vs vehicle control", "setting": "150 mg/kg BIDx1, 48 h", "value": "59.70 fold or %"}, {"measurement": "Prkca fold increase or percent reduction vs vehicle control", "setting": "150 mg/kg BIDx1, 48 h", "value": "22.18 fold or %"}, {"measurement": "Pten fold increase or percent reduction vs vehicle control", "setting": "150 mg/kg BIDx1, 48 h", "value": "1.08 fold or %"}, {"measurement": "Pttg1 fold increase or percent reduction vs vehicle control", "setting": "150 mg/kg BIDx1, 48 h", "value": "0.69 fold or %"}, {"measurement": "Rb1 fold increase or percent reduction vs vehicle control", "setting": "150 mg/kg BIDx1, 48 h", "value": "1.43 fold or %"}, {"measurement": "Rela fold increase or percent reduction vs vehicle control", "setting": "150 mg/kg BIDx1, 48 h", "value": "9.46 fold or %"}, {"measurement": "Rprm fold increase or percent reduction vs vehicle control", "setting": "150 mg/kg BIDx1, 48 h", "value": "1.00 fold or %"}, {"measurement": "Serpinb5 fold increase or percent reduction vs vehicle control", "setting": "150 mg/kg BIDx1, 48 h", "value": "3.17 fold or %"}, {"measurement": "Sesn2 fold increase or percent reduction vs vehicle control", "setting": "150 mg/kg BIDx1, 48 h", "value": "1.21 fold or %"}, {"measurement": "Sfn fold increase or percent reduction vs vehicle control", "setting": "150 mg/kg BIDx1, 48 h", "value": "13.65 fold or %"}]}]}
